What all share (assay type): functional, cell-based
For assay [1], the system named is HepG2. Nature of the assay: Cytotoxicity against human HepG2 cells after 6 days by MTT method. The note with it: HepG2, 144 h.
For assay [2], the system named is A549. Nature of the assay: Cytotoxicity against human A549 cells after 6 days by MTT method. The note with it: A549, 144 h. (Tetrazolium dyes change colour on reduction, which living cells bring about.)
Assay [3] deals with MDA-MB-231. Nature of the assay: Cytotoxicity against human MDA-MB-231cells after 6 days by MTT method. The note with it: MDA-MB-231, 144 h.

The structures appear in SMILES notation. Bounds are passed on as bounds.

Consider `CC(C)=CCC/C(=C/CC/C(C)=C/CC/C(C)=C/CC1=CC(=O)C(C)=CC1=O)CO` [CHABROLOBENZOQUINONE E], for which the IC50 in assay [1], in assay [2] and in assay [3] was more than 48.8 µM throughout.
With `CC(=O)OC/C(=C\CC/C(C)=C/CC/C(C)=C/CC1=CC(=O)C(C)=CC1=O)CCC=C(C)C` [CHABROLOBENZOQUINONE F], the IC50 – broadly, the concentration at which inhibition is half-maximal – in assay [1] came out at 38.1 µM; in assay [2], 38.1 µM; in assay [3], 33.2 µM.
As to `CC(=O)O[C@H](CC/C(C)=C/CC/C(C)=C/CC1=CC(=O)C(C)=CC1=O)[C@@](C)(O)CCC=C(C)C` [CHABROLOBENZOQUINONE H], the values for the IC50 in assay [1], in assay [2] and in assay [3] were more than 42.5 µM, 38 µM and 31.4 µM, respectively.
`CC(C)=CCC/C(C)=C/CC/C(C)=C/CC[C@](C)(O)/C=C\c1cc(O)c(C)cc1O` [CHABROLOHYDROXYBENZOQUINONE E]: the IC50 in assay [1], in assay [2] and in assay [3] was more than 48.5 µM each time.
`CC(C)=CCC/C(C)=C/[C@@H](O)C/C(C)=C/CC[C@](C)(O)/C=C\c1cc(O)c(C)cc1O` [CHABROLOHYDROXYBENZOQUINONE F]: the IC50 in assay [1] is 44.4 µM; in assay [2] it was 42.3 µM; in assay [3], more than 46.7 µM.
On to `CC(=O)O[C@H](CC/C(C)=C/CC[C@](C)(O)/C=C\c1cc(O)c(C)cc1O)[C@@](C)(O)CCC=C(C)C` [CHABROLOHYDROXYBENZOQUINONE G], for which the IC50 was 18.4 µM in assay [1], 26.8 µM in assay [2] and 18 µM in assay [3].
Take `CC(=O)O[C@H](CC/C(C)=C/CCc1ccc2c(c1)C(=O)C(C)=CC2=O)[C@@](C)(O)CCC=C(C)C` [CHABROLONAPHTHOQUINONE B]: the IC50 in assay [1] stood at 12.4 µM; in assay [2], 33.9 µM; in assay [3], 4.7 µM.
For `COc1cccc2c1C(=O)c1c(O)c3c(c(O)c1C2=O)C[C@@](O)(C(=O)CO)C[C@@H]3O[C@H]1C[C@H](N)[C@H](O)[C@H](C)O1` [DOXORUBICIN], the 50% inhibitory concentration (IC50) in assay [1] was determined as 0.17 µM; in assay [2] it was 0.17 µM; in assay [3], 0.07 µM.
